Results: US20090156582A1, “Pyrazole Compound” (priority 2005, published 2009)

How the values were obtained:
[1] = target: T1, recombinant GSK3β enzyme (human GSK3β) (Homo sapiens, UniProt P49841); experiment: Measurement of GSK3β inhibitory activity; assay type: biochemical; conditions: glycogen synthase peptide substrate, Kinase Glo luminescence, read-out: IC50 (concentration of test compound needed for 50% inhibition of luminescent intensity), GSK3β inhibitory activity
T1 construct: FLAG (N); made in house; host or cells: Sf-21 insect cells, recombinant baculovirus (pFASTBAC1 / BAC-TO-BAC)
T1 sequence (P49841 whole entry): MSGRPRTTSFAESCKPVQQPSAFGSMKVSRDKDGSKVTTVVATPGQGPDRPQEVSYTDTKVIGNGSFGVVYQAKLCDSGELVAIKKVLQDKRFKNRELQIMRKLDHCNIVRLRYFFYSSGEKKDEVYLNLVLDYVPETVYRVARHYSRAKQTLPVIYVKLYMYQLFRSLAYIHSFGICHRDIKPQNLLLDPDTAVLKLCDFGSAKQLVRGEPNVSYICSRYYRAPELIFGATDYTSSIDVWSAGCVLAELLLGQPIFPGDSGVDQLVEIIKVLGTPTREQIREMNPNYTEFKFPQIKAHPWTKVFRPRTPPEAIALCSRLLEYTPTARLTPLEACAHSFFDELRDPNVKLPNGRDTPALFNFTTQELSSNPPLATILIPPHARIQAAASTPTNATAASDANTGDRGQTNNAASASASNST
How it was run: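 FLAG-purified human GSK3β expressed in baculovirus-infected Sf-21 cells; reaction with 2.5 μM ATP (stock solution) at room temperature, 30 min. Residual ATP measured by Kinase-Glo luminescence; IC50 as concentration inhibiting 50% of luminescent intensity.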

H4IIE-C3 cells = experiment: Measurement of sugar release suppressive action using cultured hepatocyte; assay type: cell-based; conditions: Rattus norvegicus, H4IIEC3, 3 h, test compound 10 μM, Dexamethasone 500 nM and 8CPT-cAMP 0.1 mM, GSK3β inhibitor free group is 100%, read-out: sugar release suppressive activity (released glucose content, relative value)
Procedure: H4IIE-C3 cells (from rat liver) were seeded on 24 well or 96 well collagen coated plate (manufactured by Falcon), and cultured in Dulbecco's Modified Eagle Medium (DMEM: manufactured by GIBCO) containing 10% FBS, 25 mM Glucose until the cells became sub-confluent. Then, the cells were starvation treated with DMEM containing 0% FBS and 5.6 mM glucose. The medium was exchanged to DMEM containing test compound adjusted to 10 μM and sugar production stimulant (Dexamethasone (500 nM), 8CPT-cAMP (0.1 mM)), and the cells were pretreated for 5 hr. After washing with PBS, the cells were cultured in Phenol Red-free, Glucose-free DMEM containing the test compound and sugar production stimulant for 3 hr, and the glucose content released in the medium was measured. A glucose measurement kit (A-22189) manufactured by Molecular Probes was used for the glucose measurement. The sugar release suppressive activity is shown in a relative value when the released glucose content of a GSK3β inhibitor free group is 100%.

[2] = system: nerve cell prepared from cerebral cortex of fetus of SD rat; experiment: Measurement of nerve cell death suppressive activity; assay type: cell-based; conditions: rat cerebral cortex nerve cells, LY294002 50 μM final concentration, 24 hr, viable cell number by Cell Titer Glo; read-out: IC50 value (concentration of the test compound needed for 50% inhibition of nerve cell death)
Procedure: The cerebral cortex was taken from fetus of TP-14 pregnant SD rat (CLEA Japan, Inc.), and nerve cell was prepared using nerve cell culture system (SUMITOMO BAKELITE). The cerebral cortex was placed in enzymatic solution of cell dispersion solution kit (SUMITOMO BAKELITE), and incubated at 37° C. for 30 min. The cells were suspended by pipetting, and collected by centrifugation at 1000 rpm for 5 min. The supernatant was removed, and cell dispersion solution (SUMITOMO BAKELITE) was added. The cells were suspended by pipetting. The cell suspension was placed on removing solution (SUMITOMO BAKELITE), and the cells were collected by centrifugation at 1000 rpm for 5 min. The supernatant was removed, and the cells were suspended in nerve cell culture medium (SUMITOMO BAKELITE). 100 μl of the suspension was seeded on a poly D lysine•laminin 96 well plate (Becton, Dickinson and Company) at 1×10^5 cells/well. Then, the plate was cultured in a carbon dioxide gas incubator at 37° C. for 4 days. A test compound (50 μl) was added on the 96 well plate, and 50 μL/well of LY294002 was added at 50 μM of the final concentration. Then, the plate was cultured in a carbon dioxide gas incubator for 24 hr. The medium (100 μl) was sampled, and 100 μl of Cell Titer Glo solution (Promega) was added to count the viable cell number. […]

## N#CCCNC(=O)c1n[nH]cc1NC(=O)c1ccco1 [Example 412, N-(2-cyanoethyl)-4-(2-furoylamino)-1H-pyrazole-3-carboxamide]
[1]
  IC50: < 100 nM
H4IIE-C3 cells
  activity at 10 µM: 74%

## CC(C)(CO)CNC(=O)c1n[nH]cc1NC(=O)c1ccccn1 [Example 470, N-(3-(((3-hydroxy-2,2-dimethylpropyl)amino)carbonyl)-1H-pyrazol-4-yl)pyridine-2-carboxamide]
H4IIE-C3 cells
  activity at 10 µM: 75%

## O=C(Nc1c[nH]nc1C(=O)Nc1ccccc1)c1cnccn1 [Example 98, N-{3-[(phenylamino)carbonyl]-1H-pyrazol-4-yl}pyrazine-2-carboxamide]
[2]
  IC50: 440 nM

## CC(C)(C)OCCCNC(=O)c1n[nH]cc1NC(=O)c1ccccn1 [Example 455, N-(3-(((3-tert-butoxypropyl)amino)carbonyl)-1H-pyrazol-4-yl)pyridine-2-carboxamide]
H4IIE-C3 cells
  activity at 10 µM: 79%

## Cc1cccc(C(=O)Nc2c[nH]nc2C(=O)NCCC#N)c1 [Example 413, N-(2-cyanoethyl)-4-(3-methylbenzoylamino)-1H-pyrazole-3-carboxamide]
[1]
  IC50: < 100 nM
H4IIE-C3 cells
  activity at 10 µM: 64%

## Cc1ccc(C(=O)Nc2c[nH]nc2C(=O)NCC(F)(F)F)cn1 [Example 480, 6-methyl-N-(3-(((2,2,2-trifluoroethyl)amino)carbonyl)-1H-pyrazol-4-yl)pyridine-3-carboxamide]
H4IIE-C3 cells
  activity at 10 µM: 69%

## Cc1cccc(C(=O)Nc2c[nH]nc2C(=O)NCCCOC(C)C)n1 [Example 430, N-(3-(((3-isopropoxypropyl)amino)carbonyl)-1H-pyrazol-4-yl)-6-methylpyridine-2-carboxamide]
H4IIE-C3 cells
  activity at 10 µM: 76%

## O=C(Nc1c[nH]nc1C(=O)NC1CCCC1)c1cnccn1 [Example 79, N-{3-[(cyclopentylamino)carbonyl]-1H-pyrazol-4-yl}pyrazine-2-carboxamide]
[2]
  IC50: 70 nM

## CCC(CC)C(=O)Nc1c[nH]nc1C(=O)NC1CCCC1 [Example 368, N-cyclopentyl-4-((2-ethylbutanoyl)amino)-1H-pyrazole-3-carboxamide]
[1]
  IC50: < 100 nM

## Cc1ccc(C(=O)Nc2c[nH]nc2C(=O)NCCC#N)cc1 [Example 418, N-(2-cyanoethyl)-4-(4-methylbenzoylamino)-1H-pyrazole-3-carboxamide]
[1]
  IC50: < 100 nM

## Cc1cccc(C(=O)Nc2c[nH]nc2C(=O)NCCC#N)n1 [Example 387, N-(3-(((2-cyanoethyl)amino)carbonyl)-1H-pyrazol-4-yl)-6-methylpyridine-2-carboxamide]
[1]
  IC50: < 100 nM
H4IIE-C3 cells
  activity at 10 µM: 69%

## CC(=O)Nc1cccc(C(=O)Nc2c[nH]nc2C(=O)NCCOC(C)C)c1 [Example 371, 4-((3-(acetylamino)benzoyl)amino)-N-(2-isopropoxyethyl)-1H-pyrazole-3-carboxamide]
[1]
  IC50: < 100 nM

## O=C(Nc1c[nH]nc1C(=O)NC1CCCC1)c1ccc(C(F)(F)F)cc1 [compound 071]
[1]
  IC50: < 100 nM

## O=C(Nc1c[nH]nc1C(=O)NCCc1ccccc1)c1ccccn1 [Example 338, N-(3-(((2-phenylethyl)amino)carbonyl)-1H-pyrazol-4-yl)pyridine-2-carboxamide]
[1]
  IC50: < 100 nM

## O=C(Nc1c[nH]nc1C(=O)NCCCOc1ccccc1)c1ccccn1 [Example 391, N-(3-(((3-phenoxypropyl)amino)carbonyl)-1H-pyrazol-4-yl)pyridine-2-carboxamide]
[1]
  IC50: < 100 nM

## CC(=O)Nc1cccc(C(=O)Nc2c[nH]nc2C(=O)NCc2ccccc2)c1 [Example 116, 4-{[3-(acetylamino)benzoyl]amino}-N-benzyl-1H-pyrazole-3-carboxamide]
[1]
  IC50: < 100 nM

## CC(C)NC(=O)c1n[nH]cc1NC(=O)COc1ccccc1 [compound 001, N-isopropyl-4-((phenoxyacetyl)amino)-1H-pyrazole-3-carboxamide]
[1]
  IC50: 267 nM

## O=C(Nc1c[nH]nc1C(=O)NC1CCCC1)c1cnccn1 [compound 079]
[1]
  IC50: < 100 nM

## O=C(Nc1c[nH]nc1C(=O)NCc1ccc(-c2ccccc2)cc1)c1ccccn1 [Example 354, N-(3-(((biphenyl-4-ylmethyl)amino)carbonyl)-1H-pyrazol-4-yl)pyridine-2-carboxamide]
[1]
  IC50: < 100 nM

## CC(C)NC(=O)c1n[nH]cc1NC(=O)c1ccc(OC(F)(F)F)cc1 [compound 035]
[1]
  IC50: < 100 nM

## O=C(CC1CCCC1)Nc1c[nH]nc1C(=O)NCc1ccco1 [Example 143, 4-[(cyclopentylacetyl)amino]-N-(2-furylmethyl)-1H-pyrazole-3-carboxamide]
[1]
  IC50: 155 nM

## O=C(Nc1c[nH]nc1C(=O)NCCc1ccccc1)c1ccccc1 [Example 131, 4-benzoylamino-N-(2-phenylethyl)-1H-pyrazole-3-carboxamide]
[1]
  IC50: < 100 nM

## CC(C)NC(=O)c1n[nH]cc1NC(=O)c1ccc2[nH]ccc2c1 [compound 036]
[1]
  IC50: < 100 nM

## O=C(Nc1c[nH]nc1C(=O)NCCC(F)(F)F)c1ccccn1 [Example 393, N-(3-(((3,3,3-trifluoropropyl)amino)carbonyl)-1H-pyrazol-4-yl)pyridine-2-carboxamide]
[1]
  IC50: < 100 nM

## CC(C)(C)C(=O)Nc1c[nH]nc1C(=O)NCCC#N [Example 415, N-(2-cyanoethyl)-4-(2,2-dimethylpropanoylamino)-1H-pyrazole-3-carboxamide]
[1]
  IC50: < 100 nM

## CC(=O)Nc1cccc(C(=O)Nc2c[nH]nc2C(=O)NCC#N)c1 [Example 380, 4-((3-(acetylamino)benzoyl)amino)-N-(cyanomethyl)-1H-pyrazole-3-carboxamide]
[1]
  IC50: < 100 nM

## N#CCCNC(=O)c1n[nH]cc1NC(=O)c1cccs1 [Example 416, N-(2-cyanoethyl)-4-(2-thienylcarbonylamino)-1H-pyrazole-3-carboxamide]
[1]
  IC50: < 100 nM
H4IIE-C3 cells
  activity at 10 µM: 62%

## CC(=O)Nc1cccc(C(=O)Nc2c[nH]nc2C(=O)NCCC#N)c1 [Example 372, 4-((3-(acetylamino)benzoyl)amino)-N-(2-cyanoethyl)-1H-pyrazole-3-carboxamide]
[1]
  IC50: < 100 nM

## O=C(Nc1c[nH]nc1C(=O)NCc1ccco1)c1ccc(F)cc1F [compound 156]
[1]
  IC50: < 100 nM

## O=C(Nc1c[nH]nc1C(=O)NCc1ccccc1)c1ccc(F)cc1F [Example 113, N-benzyl-4-[(2,4-difluorobenzoyl)amino]-1H-pyrazole-3-carboxamide]
[1]
  IC50: < 100 nM

## N#CCCNC(=O)c1n[nH]cc1NC(=O)C1CCCC1 [Example 411, N-(2-cyanoethyl)-4-((cyclopentylcarbonyl)amino)-1H-pyrazole-3-carboxamide]
[1]
  IC50: < 100 nM

## CC1(C)C2CC[C@@]1(CS(=O)(=O)Nc1c[nH]nc1C(=O)NCCc1ccccc1)C(=O)C2 [compound 305]
[1]
  IC50: < 100 nM

## CCOCC(=O)Nc1c[nH]nc1C(=O)NCCc1ccccc1 [Example 125, 4-[(ethoxyacetyl)amino]-N-(2-phenylethyl)-1H-pyrazole-3-carboxamide]
[1]
  IC50: < 100 nM

## CCCN(CCC)S(=O)(=O)c1ccc(C(=O)Nc2c[nH]nc2C(=O)NC2CCCC2)cc1 [compound 074]
[1]
  IC50: 299 nM

## N#CCCNC(=O)c1n[nH]cc1NC(=O)c1ccccc1 [Example 420, 4-(benzoylamino)-N-(2-cyanoethyl)-1H-pyrazole-3-carboxamide]
[1]
  IC50: < 100 nM
H4IIE-C3 cells
  activity at 10 µM: 62%

## Cc1cccc(C(=O)Nc2c[nH]nc2C(=O)NCCOC(C)C)n1 [Example 426, N-(3-(((2-isopropoxyethyl)amino)carbonyl)-1H-pyrazol-4-yl)-6-methylpyridine-2-carboxamide]
[1]
  IC50: < 100 nM
H4IIE-C3 cells
  activity at 10 µM: 55%
